Experimental data as given in patent US9133207B2, “Tetrandrine derivatives with substituted 5-carbon, preparation method and use thereof” (Hangzhou Bensheng Pharmaceutical Co., Ltd., priority 2011, dated 2015).
Values after ≈ are worked out from the molar mass of the structure shown. Blank lines part the entries; values can stand above or below the molecule they belong to.

Key:
[1] = system: RPMI8226 (multiple myeloma); test: Multiple myeloma cell growth inhibition, MTT, 72 h (Example 6); type: cell-based, human; conditions: Homo sapiens, RPMI-8226; 72 h, MTT, RPMI8226
How it was run: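 Viability was read by MTT after 72 h of compound exposure at 37 °C, 5% CO2. Each well held 6000 RPMI8226 cells in 1640 medium containing 10% fetal bovine serum, with derivatives added at various concentrations.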

[2] = system: human non-small cell lung cancer cell line A549 transplanted tumor; test: Experiment 8-2: transplanted tumor of human lung cancer in nude mice; type: in vivo, BALB/c nude mice; conditions: for Mass of tumor: Day 29, M±SD
Text: (§1) Cell lines: human non-small cell lung cancer cell line A549, from China Center for Type Culture Collection (CCTCC);
(§2) The administrations are successive for 10 days.

[3] = mouse, in vivo, 50 mg/kg
Description: (§7) Animal: BALB/c nude mice, 8 weeks, female, purchased from Shanghai Laboratory Animal Center of Chinese Academy of Sciences, China.
(§8) The mice are administered from the third day after the inoculation. Each mouse is intragastrically administered in 0.4 ml each time and 3 times a day, at 8:00, 14:00 and 20:00, with 6-hour intervals. The administrations are successive for 10 days. The day before administration is deemed as Day 0 and the body weight and tumor size are determined every 5 days to produce a dynamic plot on body weight and tumor growth. On Day 29, the mice are dissected and the tumors are taken out and weighted. The tumor inhibition rate (%) is calculated after the effect of the medicament based on the tumor inhibition rate of the control group being zero.
(§9) The values determined are presented as mean±standard error (M±SD).

[4] = Experiment 8-2: body weight of nude mice, preliminary toxicity; conditions: for Weight (g) Final: 50 mg/kg intragastric, 3 times a day, 10 days, final body weight; for Weight (g) Final / Weight (g) Initial: M±SD; for Weight (g) Initial: nude mice body weight before administration
Description: as §7, §8, §9

[5] = system: Kasumi-1 (acute myeloid leukemia M2 type, AML-M2); test: Leukemia cell growth inhibition, MTT, 72 h (Example 5); type: cell-based, human; conditions: Homo sapiens, Kasumi 1
How it was run: (§3)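 RPMI 1640 + 10% FBS, 6000 cells/well; tetrandrine derivatives at various concentrations; 37° C, 5% CO2, 72 h; viability by MTT.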

[6] = system: H9 (acute lymphoblastic leukemia, ALL); test: as above; type: cell-based, human; conditions: Homo sapiens; 72 h, MTT
How it was run: as §3

[7] = system: K562/adr (drug-resistant, chronic myeloid leukemia, CML); test: as above; type: cell-based, human; conditions: Homo sapiens, K562/Adr; 72 h, MTT
How it was run: as §3

[8] = system: Jurkat (acute lymphoblastic leukemia, ALL); test: as above; type: cell-based, human; conditions: for IC50 / IC90: Homo sapiens, Jurkat, 72 h, MTT
How it was run: as §3

[9] = system: NB4 (acute promyelocytic leukemia, AML); test: as above; type: cell-based, human; conditions: Homo sapiens; 72 h, MTT
How it was run: as §3

MG63 (osteosarcoma) = test: Solid tumor cell growth inhibition, MTT, 72 h (Example 7); type: cell-based, human; conditions: Homo sapiens; 72 h, MTT, MG-63
How it was run: (§4)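 4000 cells/well; DMEM high glucose + 10% FBS; 37 °C, 5% CO2; 24 h pre-culture; tetrandrine derivatives, varied conc., 72 h; MTT readout; viability % vs untreated control = 100%.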

[10] = system: Hep-2 (laryngeal carcinoma); test: as above; type: cell-based, human; conditions: Homo sapiens; 72 h, MTT, Hep 2
How it was run: as §4

[11] = system: CaES-17 (esophageal cancer cell); test: as above; type: cell-based, human; conditions: Homo sapiens, CaEs17; 72 h, MTT, CAES-17
How it was run: as §4

PC-3 (prostate cancer) = test: as above; type: cell-based, human; conditions: Homo sapiens; 72 h, MTT, PC-3
How it was run: as §4

[12] = system: PANC-1 (pancreatic cancer); test: as above; type: cell-based, human; conditions: for IC50 / IC90: Homo sapiens, 72 h, MTT, PANC-1
How it was run: as §4

[13] = system: Becap37 (human breast cancer cell); test: as above; type: cell-based; conditions: for IC50 / IC90: Homo sapiens, 72 h, MTT, Becap-37
How it was run: as §4

[14] = system: CNE (nasopharyngeal carcinoma cell); test: as above; type: cell-based; conditions: Homo sapiens
How it was run: as §4

A549 (human lung cancer) = test: as above; type: cell-based; conditions: Homo sapiens; 72 h, MTT, A549
How it was run: as §4

[15] = system: Hela (human cervical cancer cell); test: as above; type: cell-based; conditions: Homo sapiens; 72 h, MTT, Hela
How it was run: as §4

[16] = system: SK-OV-3 (ovarian cancer cell); test: as above; type: cell-based; conditions: Homo sapiens
How it was run: as §4

[17] = system: RKO (human colon adenocarcinoma cell); test: as above; type: cell-based; conditions: Homo sapiens; 72 h, MTT, RKO
How it was run: as §4

[18] = system: Huh7 (human liver cancer cell); test: as above; type: cell-based; conditions: for IC50 / IC90: Homo sapiens, 72 h, MTT, Huh-7
How it was run: as §4

[19] = system: MGC 803 (human gastric cancer cell); test: as above; type: cell-based; conditions: Homo sapiens
How it was run: as §4

[20] = system: U87 MG (malignant glioma cell); test: as above; type: cell-based; conditions: Homo sapiens, U-87 MG
How it was run: as §4

[21] = Experiment 8-1: body weight of nude mice, preliminary toxicity; type: in vivo, BALB/c nude mice; conditions: M±SD
Description: (§5) BS-TE-403 and BS-TE-333 (the present invention), and tetrandrine TTD from Jiangxi Jinfurong Pharmaceutical Co., Ltd. All compounds are administered at the dosage of 50 mg/kg weight each time.
(§6) The experiments are divided into 4 groups: negative control group (solvent group), positive control group (lead compound TTD group), BS-TE-403 group and BS-TE-333 group.
as §2

[22] = system: human non-small cell lung cancer cell line A549 transplanted tumor; test: Experiment 8-1: transplanted tumor of human lung cancer in nude mice; type: in vivo, BALB/c nude mice; conditions: 50 mg/kg intragastric, 3 times a day, 10 days
Description: as §1, §5
Under sterile conditions, the above tumor cells in the logarithmic growth phase are collected and injected by subcutaneous injection in an amount of 5×10^6/0.2 ml/nude mice (cell viability>95%) into the right subaxillary of the nude mice, thus establishing a transplated tumor model of human non-small cell lung cancer in nude mice.
as §6, §2

[23] = system: human breast cancer multidrug resistant lines MCF-7/ADR; conditions: 2.5 μmol/L tetrandrine; cited from earlier work
[24] = 50 mg/kg intragastric, 3 times a day, 10 days

SMILES: COc1ccc2cc1Oc1ccc(cc1)C[C@H]1c3cc(c(OC)cc3CCN1C)Oc1c(OC)c(OC)c(CN3CCC(N(C)C)CC3)c3c1[C@H](C2)N(C)CC3 [BS-TE-354]
IC50 [1]: 0.08 µg/mL (≈ 0.105 µM)
IC90 [1]: 1.58 µg/mL (≈ 2.07 µM)
effect on transplanted tumor of human lung cancer in nude mice ([2]; 50 mg/kg): exhibits inhibiting effect
Mass of tumor [2, 24]: 423.25 ± 364.28 mg
Tumor Inhibition rate (%) ([2]; 50 mg/kg intragastric, 3 times a day, 10 days, Day 29, control = zero): 43.60%
toxic and side effect under such a dosage [3]: has caused some toxic and side effect
weight loss as compared with the weight in the control group (FIG. 6) ([4]; 50 mg/kg): relatively remarkable
Weight (g) Final [4]: 16.08 ± 1.00 g
Weight (g) Initial [4]: 22.25 ± 0.29 g
IC50 [5]: 0.37 µg/mL (≈ 0.485 µM)
IC90 [5]: 1.97 µg/mL (≈ 2.58 µM)
IC50 [6]: 0.78 µg/mL (≈ 1.02 µM)
IC90 [6]: 1.25 µg/mL (≈ 1.64 µM)
IC50 [7]: 0.99 µg/mL (≈ 1.3 µM)
IC90 [7]: 2.65 µg/mL (≈ 3.47 µM)
IC50 [8]: 0.5 µg/mL (≈ 0.655 µM)
IC90 [8]: 2.23 µg/mL (≈ 2.92 µM)
anti-Jurkat activity increase over tetrandrine ([8]; compared with tetrandrine): ~4 fold
IC50 [9]: 0.4 µg/mL (≈ 0.524 µM)
IC90 [9]: 1 µg/mL (≈ 1.31 µM)
IC50 (MG63 (osteosarcoma)): 0.68 µg/mL (≈ 0.891 µM)
IC90 (MG63 (osteosarcoma)): 0.9 µg/mL (≈ 1.18 µM)
IC50 [10]: 2.05 µg/mL (≈ 2.69 µM)
IC90 [10]: 6.19 µg/mL (≈ 8.11 µM)
IC50 [11]: 0.91 µg/mL (≈ 1.19 µM)
IC90 [11]: 4.89 µg/mL (≈ 6.41 µM)
IC50 (PC-3 (prostate cancer)): 1.9 µg/mL (≈ 2.49 µM)
IC90 (PC-3 (prostate cancer)): 2.5 µg/mL (≈ 3.28 µM)
IC50 [12]: 1.25 µg/mL (≈ 1.64 µM)
IC90 [12]: 6.31 µg/mL (≈ 8.27 µM)
anti-PANC-1 activity increase over tetrandrine ([12]; compared with tetrandrine): 2 fold
IC50 [13]: 0.4 µg/mL (≈ 0.524 µM)
IC90 [13]: 2.4 µg/mL (≈ 3.15 µM)
anti-Becap37 activity increase over tetrandrine ([13]; compared with tetrandrine): 17 fold
IC50 [14]: 0.54 µg/mL (≈ 0.708 µM)
IC90 [14]: 1.62 µg/mL (≈ 2.12 µM)
IC50 (A549 (human lung cancer)): 1.8 µg/mL (≈ 2.36 µM)
IC90 (A549 (human lung cancer)): 9.8 µg/mL (≈ 12.8 µM)
IC50 [15]: 1.07 µg/mL (≈ 1.4 µM)
IC90 [15]: 2.81 µg/mL (≈ 3.68 µM)
IC50 [16]: 1.4 µg/mL (≈ 1.83 µM)
IC90 [16]: > 16 µg/mL
IC50 [17]: 0.25 µg/mL (≈ 0.328 µM)
IC90 [17]: 0.51 µg/mL (≈ 0.668 µM)
IC50 [18]: 0.65 µg/mL (≈ 0.852 µM)
IC90 [18]: 0.98 µg/mL (≈ 1.28 µM)
anti-Huh7 activity increase over tetrandrine ([18]; compared with tetrandrine): ~8 fold
IC50 [19]: 0.83 µg/mL (≈ 1.09 µM)
IC90 [19]: 3.93 µg/mL (≈ 5.15 µM)
IC50 [20]: 0.31 µg/mL (≈ 0.406 µM)
IC90 [20]: 1.44 µg/mL (≈ 1.89 µM)

SMILES: COc1cc2ncnc(Nc3ccc(F)c(Cl)c3)c2cc1OCCCN1CCOCC1 [Jef, gefitinib, reference compound]
Mass of tumor [2, 24]: 883 ± 273.32 mg
Weight (g) Final [4]: 21.8 ± 0.99 g
Weight (g) Initial [4]: 22.1 ± 0.17 g

IC50 [1]: 0.37 µg/mL (≈ 0.594 µM)
IC90 [1]: 2.54 µg/mL (≈ 4.08 µM)
IC50 [5]: 1.69 µg/mL (≈ 2.71 µM)
IC90 [5]: 8.24 µg/mL (≈ 13.2 µM)
IC50 [6]: 2.69 µg/mL (≈ 4.32 µM)
IC90 [6]: 6.4 µg/mL (≈ 10.3 µM)
IC50 [7]: 0.44 µg/mL (≈ 0.707 µM)
IC90 [7]: 2.14 µg/mL (≈ 3.44 µM)
IC50 [8]: 2.09 µg/mL (≈ 3.36 µM)
IC90 [8]: 9.85 µg/mL (≈ 15.8 µM)
IC50 [9]: 1.6 µg/mL (≈ 2.57 µM)
IC90 [9]: 4.1 µg/mL (≈ 6.58 µM)
IC50 (MG63 (osteosarcoma)): 1.9 µg/mL (≈ 3.05 µM)
IC90 (MG63 (osteosarcoma)): 3.7 µg/mL (≈ 5.94 µM)
IC50 [10]: 3.88 µg/mL (≈ 6.23 µM)
IC90 [10]: 11.9 µg/mL (≈ 19 µM)
IC50 [11]: 8.34 µg/mL (≈ 13.4 µM)
IC90 [11]: > 16 µg/mL
IC50 (PC-3 (prostate cancer)): 6.01 µg/mL (≈ 9.65 µM)
IC90 (PC-3 (prostate cancer)): 10.8 µg/mL (≈ 17.3 µM)
IC50 [12]: 3.16 µg/mL (≈ 5.07 µM)
IC90 [12]: 7.02 µg/mL (≈ 11.3 µM)
IC50 [13]: 6.9 µg/mL (≈ 11.1 µM)
IC90 [13]: 15 µg/mL (≈ 24.1 µM)
IC50 [14]: 3.3 µg/mL (≈ 5.3 µM)
IC90 [14]: 6.2 µg/mL (≈ 9.96 µM)
IC50 (A549 (human lung cancer)): 2.9 µg/mL (≈ 4.66 µM)
IC90 (A549 (human lung cancer)): 12.5 µg/mL (≈ 20.1 µM)
IC50 [15]: 4.05 µg/mL (≈ 6.5 µM)
IC90 [15]: 9.24 µg/mL (≈ 14.8 µM)
IC50 [16]: 9.04 µg/mL (≈ 14.5 µM)
IC90 [16]: > 16 µg/mL
IC50 [17]: 2.72 µg/mL (≈ 4.37 µM)
IC90 [17]: 6.3 µg/mL (≈ 10.1 µM)
IC50 [18]: 5.05 µg/mL (≈ 8.11 µM)
IC90 [18]: 7.81 µg/mL (≈ 12.5 µM)
IC50 [19]: 1.97 µg/mL (≈ 3.16 µM)
IC90 [19]: 7.41 µg/mL (≈ 11.9 µM)
IC50 [20]: 0.66 µg/mL (≈ 1.06 µM)
IC90 [20]: 3.58 µg/mL (≈ 5.75 µM)
SMILES: COc1ccc2cc1Oc1ccc(cc1)C[C@H]1c3cc(c(OC)cc3CCN1C)Oc1c(OC)c(OC)cc3c1[C@H](C2)N(C)CC3 [TTD, 6,6′,7,12-tetramethoxy-2,2′dimethylberbamine, reference compound]
Weight (g) Final ([21]; 50 mg/kg intragastric, 3 times a day, 10 days, final body weight): 19.10 ± 2.02 g
Weight (g) Initial ([21]; nude mice body weight before administration): 22.40 ± 0.26 g
Mass of tumor ([22]; Day 27, M±SD): 799.00 ± 349.09 mg
Tumor Inhibition rate (%) ([22]; Day 27, control = zero): 13.95%
increase of adriamycin cytotoxicity on drug-resistant tumors [23]: 20.4 times
